Earlier results in patent US20100216719A1, “Soluble Fiber Combinations for Weight Control and Improving Parameters of Cardiovascular Health” (MANNATECH, INCORPORATED, priority 2005, published 2010).

Tests used:
[1] = subjects supplemented with 3.8 grams per day for 28 days
[2] = test animals

Substance	reduction in ApoB [1] [%]	reduction in LDL cholesterol [1] [%]	reduction in fasting glucose levels [1] [%]	reduction in plasma cholesterol [1] [%]	reduction in total cholesterol/HDL cholesterol ratio [1] [%]	effect on cholesterol [2]	effect on triglycerides [2]
Konjac glucomannan	12.9	20.7	23.2	11.1	15.6	–	–
guar gum	–	–	–	–	–	decreased only cholesterol	–
xanthan gum	–	–	–	–	–	significantly reduced	significantly reduced
